Experiments:
CHK1 (h) = molecular target: T1, CHK1 (h) (Homo sapiens, UniProt O14757); assay: Chk-1 kinase inhibiting activity (Upstate radiometric assay); format: biochemical
T1 construct: purchased Upstate Ltd (assay run at Upstate)
T1 sequence (O14757 1-476): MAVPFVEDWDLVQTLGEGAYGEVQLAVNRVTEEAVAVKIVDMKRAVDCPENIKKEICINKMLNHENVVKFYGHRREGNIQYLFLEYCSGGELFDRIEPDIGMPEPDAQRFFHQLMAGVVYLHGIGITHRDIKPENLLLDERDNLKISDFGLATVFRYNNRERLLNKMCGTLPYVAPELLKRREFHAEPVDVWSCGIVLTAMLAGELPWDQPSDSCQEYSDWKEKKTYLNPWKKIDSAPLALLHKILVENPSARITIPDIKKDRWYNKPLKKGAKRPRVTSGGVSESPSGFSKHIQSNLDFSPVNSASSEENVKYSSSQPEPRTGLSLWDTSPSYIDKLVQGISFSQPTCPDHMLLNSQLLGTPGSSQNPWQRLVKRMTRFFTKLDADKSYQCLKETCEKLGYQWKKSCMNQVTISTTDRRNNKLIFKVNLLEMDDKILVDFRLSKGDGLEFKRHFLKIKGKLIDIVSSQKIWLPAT
Procedure: The N-oxide compounds of the invention and their tertiary amine precursors were tested for activity against the Chk-1 kinase.
The Chk-1 assay was conducted at Upstate Ltd, Gemini Crescent, Dundee Technology Park, Dundee, DD2 1 SW, UK in accordance with the protocol set out below. In a final reaction volume of 25 μl, CHK1 (h) (5-10 mU) is incubated with 8 mM MOPS pH 7.0, 0.2 mM EDTA, 200 μM […], 10 mM MgAcetate and γ-33P-ATP] (specific activity approx. 500 cpm/pmol, concentration as required). The reaction is initiated by the addition of the MgATP mix. After incubation for 40 minutes at room temperature, the reaction is stopped by the addition of 5 μl of a 3% phosphoric acid solution. 10 μl of the reaction mixture is then spotted onto a P30 filtermat and washed three times for 5 minutes in 75 mM phosphoric acid and once in methanol prior to drying and scintillation counting.

hERG potassium channel = molecular target: T2, hERG potassium channel (Homo sapiens, UniProt Q12809); assay: Functional hERG assay (patch clamp, HEK-293 cells); format: cell-based; conditions: 5-point dose response, triplicate
T2 construct: expressed in transfected cells; host or cells: HEK-293
T2 sequence (Q12809 whole entry): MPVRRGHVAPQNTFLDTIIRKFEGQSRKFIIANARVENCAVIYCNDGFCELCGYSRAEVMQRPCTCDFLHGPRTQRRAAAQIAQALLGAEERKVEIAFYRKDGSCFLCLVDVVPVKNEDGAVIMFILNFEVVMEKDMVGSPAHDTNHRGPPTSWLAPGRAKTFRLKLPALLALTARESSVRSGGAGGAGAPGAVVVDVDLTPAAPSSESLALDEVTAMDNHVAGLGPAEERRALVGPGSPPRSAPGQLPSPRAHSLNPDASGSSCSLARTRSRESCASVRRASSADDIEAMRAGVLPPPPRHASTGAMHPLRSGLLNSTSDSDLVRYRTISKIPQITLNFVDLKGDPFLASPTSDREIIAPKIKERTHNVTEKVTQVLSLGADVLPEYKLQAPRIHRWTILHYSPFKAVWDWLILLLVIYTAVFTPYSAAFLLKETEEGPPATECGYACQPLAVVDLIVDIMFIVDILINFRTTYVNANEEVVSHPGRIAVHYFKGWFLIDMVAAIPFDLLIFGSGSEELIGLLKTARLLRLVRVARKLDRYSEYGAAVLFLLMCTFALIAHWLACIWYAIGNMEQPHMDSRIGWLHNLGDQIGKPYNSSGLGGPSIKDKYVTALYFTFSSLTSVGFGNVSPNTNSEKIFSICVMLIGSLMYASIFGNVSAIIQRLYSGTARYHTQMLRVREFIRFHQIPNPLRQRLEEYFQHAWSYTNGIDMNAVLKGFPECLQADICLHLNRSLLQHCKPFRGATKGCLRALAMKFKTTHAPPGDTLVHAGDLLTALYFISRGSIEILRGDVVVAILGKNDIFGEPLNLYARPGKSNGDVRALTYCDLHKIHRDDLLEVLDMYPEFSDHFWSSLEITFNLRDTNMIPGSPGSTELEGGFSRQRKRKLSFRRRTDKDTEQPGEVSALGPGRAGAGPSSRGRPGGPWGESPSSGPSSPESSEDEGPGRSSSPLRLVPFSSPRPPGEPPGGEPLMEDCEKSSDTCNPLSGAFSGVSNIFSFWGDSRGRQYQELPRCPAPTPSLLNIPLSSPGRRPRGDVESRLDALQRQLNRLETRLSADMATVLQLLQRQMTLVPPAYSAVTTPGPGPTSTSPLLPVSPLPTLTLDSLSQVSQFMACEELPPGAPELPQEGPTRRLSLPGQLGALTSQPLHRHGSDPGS
Procedure: The N-oxide compounds of the invention and their tertiary amine precursors were each tested for hERG inhibiting activity using the method of Zhou Z, Gong Q, Ye B, Fan Z, Makielski J C, Robertson G A, January C T. Biophys J. 1998 January; 74(1):230-41.
Test compounds were tested in triplicate in a 5-point dose response curve on HEK-293 cells stably expressing the hERG potassium channel. Potassium current was measured using the patch clamp technique on a Molecular Devices Patch Express 7000. hERG channels were activated by 2 second pulses to +20 mV from a holding potential of −80 mV, and peak tail currents were recorded upon repolarization to −50 mV. This voltage-clamp pulse protocol was performed continuously during the experiment (vehicle control, test compound, washout, and positive control additions). An interpulse interval of 15 seconds allowed recovery from any residual inactivation. Test compounds were incubated with cells between 3-8 minutes until the current reached a steady state level, defined by a Standard Deviation of 0.01. After the final test compound concentration was tested, test compound was washed out with continuous perfusion of extracellular solution for 3 minutes, followed by application of positive control (10 μM Cisparide).
Test compounds were diluted in 100% DMSO at 1000× the highest concentration to be tested, vortexed, and sonicated. Visual inspection determined that compounds were completely solubilized. Test compounds were then diluted into glass vials in 100% DMSO for all test concentrations at 1000× the final concentration to be tested and vortexed. Test compounds were then diluted 1:1000 into extracellular solution and vortexed to achieve final concentration for testing. Final DMSO concentration was 0.1% for all concentrations of test compounds, Vehicle (negative) control, and Cisapride (positive) control in extracellular solution. The compositions of the solutions used were as follows:
Intracellular Soln (mM): KCl 130, EDTA 5, MgCl2 5, HEPES10, Na-ATP 5, pH=7.2 Extracellular Soln (mM): NaCl 137, KCl 4, CaCl2 1.8, MgCl2 1, Dextrose 11, HEPES 10, pH=7.4

[1] = molecular target: T3, human potassium channel hERG (Homo sapiens, UniProt Q12809); assay: hERG binding activity ([3H] astemizole displacement, HEK-293 membranes); conditions: 1.5 nM [3H] astemizole; for IC50: 60 minutes at 25° C.
T3 construct: expressed in transfected cells; host or cells: HEK-293
T3 sequence (Q12809 whole entry): as above
Procedure: The abilities of the N-oxide compounds of the invention and their tertiary amine precursors were tested using the assay described below.
Human recombinant HEK-293 cells stably transfected with a plasmid encoding the human potassium channel hERG were used to prepare membranes in modified HEPES pH 7.4 buffer using standard techniques. A 10 μg aliquot of membrane was incubated with 1.5 nM [^3H] astemizole in the presence of varying concentrations of test compound for 60 minutes at 25° C. The membranes were then filtered and washed three times and the filters were counted to determine the [^3H] astemizole specifically bound. From the counts, the extent of binding of the test compound and, in some cases, the IC50 values of the test compounds, were determined.

IC50 (CHK1 (h))	Compound	IC50 (hERG potassium channel)	IC50 [1]	HERG Binding % @ 100 uM (extent of binding) ([1]; @ 100 uM test compound)
< 10 nM	CN(C)CCCOc1ccc(Cl)cc1NC(=O)Nc1cnc(C#N)cn1 [Example 3B, 1-[5-Chloro-2-(3-dimethylamino-propoxy)-phenyl]-3-(5-cyano-pyrazin-2-yl)-urea]	435 nM	5120 nM	
24 nM	C[N+](C)([O-])CCCOc1ccc(Cl)cc1NC(=O)Nc1cnc(C#N)cn1 [Example 3C, 1-[5-Chloro-2-(3-dimethyloxyamino-propoxy)-phenyl]-3-(5-cyano-pyrazin-2-yl)-urea]	16300 nM		46% @ 100 uM
279 nM	CN(C)CCCOc1ccc(Cl)cc1NC(=O)Nc1ccc(C#N)cn1 [Example 4B, 1-[5-Chloro-2-(3-dimethylamino-propoxy)-phenyl]-3-(5-cyano-pyridin-2-yl)-urea]	130 nM	445 nM	
581 nM	C[N+](C)([O-])CCCOc1ccc(Cl)cc1NC(=O)Nc1ccc(C#N)cn1 [Example 4C, 1-[5-Chloro-2-(3-dimethyloxylamino-propoxy)-phenyl]-3-(5-cyano-pyridin-2-yl)-urea]	2440 nM	7670 nM	
